Assay results as given in ChEMBL document CHEMBL4190161 (Medchemcomm, 2016).
Calls of active or inactive are those of the source. The rule behind the calls is not given here. Starred links: 1 amine or outer side, 2 acyl side, 3 side chain; linkers in the order of their positions; H or OH if unused. Residues, ends and D or L forms follow the SMILES beside them. γGlu = O=C(O)[C@H](CCC(=O)[*:2])N[*:1]

Experiments:
[1] = Antioxidant activity of the compound in phosphate buffer at pH 7.4 assessed as trolox equivalent of AAPH-induced peroxyl radical scavenging activity at 6 uM pretreated for 2 mins followed by AAPH addition measured at 2 mins interval for 108 minutes by ORAC-FL assay; type: functional
[2] = Antioxidant activity assessed as DPPH radical scavenging activity incubated for 30 mins under dark condition by spectrophotometric method; type: functional
[3] = Antioxidant activity assessed as trolox equivalent of hydroxyl radical scavenging activity up to 25 mg/ml measured after 60 mins by fenton reaction method; type: functional
[4] = Metal chelating activity assessed as compound-Fe2+ complex formation
[5] = Antioxidant activity of the compound in phosphate buffer at pH 7.4 assessed as trolox equivalent of AAPH-induced peroxyl radical scavenging activity measured at 2 mins interval for 80 minutes by ORAC-FL assay; type: functional
[6] = Antioxidant activity of the compound in phosphate buffered saline at pH 7.4 assessed as trolox equivalent of ABTS radical scavenging activity after 6 mins by spectrophotometric method; type: functional
[7] = Antioxidant activity assessed as ABTS radical scavenging activity measured within 12 mins by spectrophotometric method; type: functional
[8] = Antioxidant activity of the compound in phosphate buffer at pH 6.6 assessed as trolox equivalent of potassium ferric cyanide ion reducing activity at 0.4 mM after 20 mins by spectrophotometric method; type: functional
[9] = Antioxidant activity assessed as DPPH radical scavenging activity measured after 30 mins by spectrophotometric method; type: functional
[10] = Antioxidant activity assessed as DPPH radical scavenging activity measured after 20 mins by spectrophotometric method; type: functional

SMILES	Activity (umolequiv/umol) [1]	IC50 [2] [mM]	Activity [3]	Activity [4]	Activity (umolequiv/umol) [5]	other results
CC(C)C[C@H](NC(=O)[C@@H](N)CCCCN)C(=O)N[C@@H](CCC(=O)O)C(=O)O (H-Lys-Leu-Glu-OH)	-0.04	348	inactive	inactive	–	–
CC(C)C[C@H](NC(=O)[C@H](Cc1cnc[nH]1)NC(=O)[C@@H](N)Cc1ccc(O)cc1)C(=O)O	0.36	99.9	Active	inactive	–	–
N[C@@H](Cc1ccc(O)cc1)C(=O)O	–	–	–	–	1.57	–
N[C@@H](CCC(=O)N[C@@H](CS)C(=O)N[C@@H](Cc1cnc[nH]1)C(=O)O)C(=O)O (γGlu-Cys-His-OH)	–	–	–	–	–	Activity [6]: Active
CSCC[C@H](N)C(=O)O	–	–	–	–	1.13	–
N[C@@H](Cc1c[nH]cn1)C(=O)O	–	–	–	–	0.073	–
CC(C)[C@H](NC(=O)[C@@H](N)CCCCN)C(=O)N[C@@H](Cc1cnc[nH]1)C(=O)O (H-Lys-Val-His-OH)	0.03	285	Active	inactive	–	–
N[C@@H](Cc1ccc(O)cc1)C(=O)N[C@@H](CCC(=O)O)C(=O)NCC(=O)O (H-Tyr-Glu-Gly-OH)	1.2	78.8	–	inactive	–	Activity [7]: Active; Activity (mmolequiv/mmol) [3]: 0.47
CC(C)C[C@H](NC(=O)[C@H](CCCCN)NC(=O)[C@@H](N)Cc1ccccc1)C(=O)O (H-Phe-Lys-Leu-OH)	-0.06	4.2	Active	inactive	–	Activity (umolequiv/umol) [8]: 20.4
O=C(O)CNC(=O)[C@H](CS)NC(=O)[C@@H]1CCCN1 (H-Pro-Cys-Gly-OH)	0.2	0.3	Active	inactive	–	Activity [6]: Active; Activity [9]: inactive; Activity (umolequiv/umol) [8]: 25.2
CC(C)C[C@H](NC(=O)[C@H](CCC(=O)O)NC(=O)CN)C(=O)O (H-Gly-Glu-Leu-OH)	-0.1	521	inactive	inactive	–	–
N[C@@H](CCC(=O)O)C(=O)N[C@@H](CS)C(=O)N[C@@H](Cc1cnc[nH]1)C(=O)O (H-Glu-Cys-His-OH)	0.1	0.11	Active	inactive	–	Activity [7]: Active; Activity (umolequiv/umol) [8]: 61.2; Activity [10]: inactive
N[C@@H](CCC(=O)N[C@@H](CS)C(=O)NCC(=O)O)C(=O)O [GLUTATHIONE]	0.65	0.16	–	inactive	–	Activity [7]: Active; Activity (umolequiv/umol) [8]: 50.7
N[C@@H](Cc1ccccc1)C(=O)O	–	–	–	–	0.0025	–
N[C@@H](CS)C(=O)O	–	–	–	–	0.149	–
CC(C)C[C@H](N)C(=O)N[C@@H](Cc1cnc[nH]1)C(=O)NCC(=O)O (H-Leu-His-Gly-OH)	-0.48	102	Active	inactive	–	–
